From patent US9662328B2, “Targeting human thymidylate kinase induces DNA repair toxicity in malignant tumor cells” (NATIONAL YANG-MING UNIVERSITY, priority 2010, dated 2017)
Where “and” joins values, the source holds several entries; their conditions need not be identical. Equal values may be shown once.

What was measured:
[1] = test system: Human RM osteosarcoma cells; experiment: Colony formation analysis of osteosarcoma cells; format: cell-based; conditions: for effect on suppressing colony formation, single agent: compound 5 μM or doxorubicin 20 nM alone, 2 days, replated for 1 week; for colony formation, combination with doxorubicin: compound 5 μM plus doxorubicin 20 nM
Description: FIG. 5. The effect of TMPK inhibitors alone or in combination with a chemotherapeutic agent on viability of osteosarcoma cells. (A) Human RM osteosarcoma cells (a representative bone cancer cells) were seeded at 2×10^4/35 mm dish and treated with Doxorubicin (20 nM), compound I-d-7 (5 μM), compound I-d-6 (5 μM) as indicated. After 2 days, medium was replaced with fresh medium without drug and cells were replated to a 24-well plate at 600 cells/well for 1 week for colony formation analysis.

hTMPK [2] = target: T1, hTMPK (Homo sapiens, UniProt P23919); experiment: In vitro inhibitory activity against human TMPK at 2 μM; format: biochemical; conditions: test compounds at 2 μM concentration
T1 sequence (P23919 1-212): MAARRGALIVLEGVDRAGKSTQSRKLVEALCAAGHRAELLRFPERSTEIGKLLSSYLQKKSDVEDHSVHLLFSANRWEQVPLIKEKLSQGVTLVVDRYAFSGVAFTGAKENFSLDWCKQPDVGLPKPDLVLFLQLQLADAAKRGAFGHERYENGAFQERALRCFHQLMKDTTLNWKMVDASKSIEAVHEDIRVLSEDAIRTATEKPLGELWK
Description: (§1) The TMPK reaction was started by adding purified hTMPK in 50 μl of TMPK assay buffer (100 mM Tris-HCl, pH 7.5, 100 mM KCl, 10 mM MgCl2, 50 μM ATP and 100 μM dTMP) in 96 wells plate at 25° C. for 10 min and terminated by adding 200 μl of DTNB (100 μM), followed by transferring 10 μl of reaction solution to a white 96-wellplate containing 90 μl of luciferase assay buffer (50 mM Glycine, 0.5 mM EDTA and 5 mM EDTA, pH 7.0, 0.1 μg of luciferase, 50 μM luciferin and 0.1% BSA). The luminescence was measured with a luminescence counter (Packard).
(§2) All reactions were performed in 96-well plates in an assay volume of 100 μl. The activity of hTMPK was measured at 25° C. using a modified NADH coupled colorimetric assay as described (Agarwal et al., 1978; Miyata et al., 2003; Ostermann et al., 2003), in which purified hTMPK was added to the buffer containing 100 mM Tris-HCl, pH 7.5, 100 mM KCl, 10 mM MgCl2, 0.5 mM phosphoenol pyruvate, 0.25 mM NADH, 5 units of lactate dehydrogenase, 4 units of pyruvate kinase, 1 mM ATP, and 200 μM dTMP. The change of NADH was measured by reading the absorbance at 340 nm. One unit of TMPK activity is defined as the conversion of […] of TMP to TDP per minute.
The in vitro inhibitory activities of test compounds (at 2 μM concentration) against human TMPK are shown in Table 3 and compared with that of YMU1 and YMU2.

MDA-MB231 cell = experiment: Doxorubicin sensitization in MDA-MB231 cell treatment; format: cell-based; conditions: compound at 2 μM
Description: Cells plated into a 96-well plate (10^3 cells/well) were treated and cell viability was measured by MTS assay (Promega) (Cory et al., 1991). An annexin V-fluorescein isothiocyanate (FITC) apoptosis kit (Calbiochem) was used to detect apoptosis.

HCT-116 p53−/− cells = experiment: γH2AX foci staining to indicate DNA damage (genotoxicity); format: cell-based
Description: FIG. 1. TMPK knockdown has no genotoxicity but promoting doxorubicin-induced cell death in p53 proficient and deficient colon cancer cells. […] These cells were fixed for γH2AX foci staining to indicate DNA damage and Western blotting analysis. (B-C) FITC-labeled annexin V apoptosis assay. (B) p53(+/+) HCT-116 were and (−/−) HCT-116 cells were infected with or without lentiviral TMPK^shRNA for 72 hr, treated with 0.5 μM doxorubicin for 24 hr (C) Cells were with or without lentiviral TS^shRNA for 72 hr with a subsequent 1 μM doxorubicin treatment for 24 hr as indicated Cells were then stained with FITC-labeled annexin V and observed by fluorescent microscopy. Green-positive indicates apoptotic cell.
For γH2AX staining, cells were fixed with 4% paraformaldehyde for 30 min at room temperature and were incubated with TBS (50 mM Tris-HCl, pH 7.4, 150 mM NaCl) plus 0.3% Triton X-100 for 5 min. The coverslips were blocked with MAXblock™ (Active Motif) for 1 h at 37° C., followed by staining with primary antibodies: anti-γH2AX monoclonal antibody (1:1000), anti-Rad51 polyclonal
To understand the differential DNA damage effect of blocking thymidylate kinase (TMPK) and thymidylate synthase (TS) in colon cancer cells. TMPK or TS expression was depleted in colon cancer cells, HCT-116 p53^−/−, by infection with lentivirus expressing corresponding shRNA. […]

hTMPK [3] = target: T1, hTMPK; experiment: Inhibition constant (Ki) by NADH-coupled TMPK assay; format: biochemical; conditions: pre-incubated with 0.5 μg purified hTMPK for 10 min
Description: as §2
For determination of inhibition constant (Ki value), the inhibitor at the indicated concentration was pre-incubated with 0.5 μg of purified hTMPK protein for 10 min, and the initial velocity of the TMPK reaction was measured in the presence of ATP (1 mM) and different concentrations of TMP (2-200 μM) or in the presence of TMP (200 μM) and different concentrations of ATP (5-1000 μM) using NADH-coupled TMPK assay as described in the Methods of the Invention section. The Ki value was calculated from an equation of Ki=[I]/(Vmax/Vmax^I−1) wherein [I] is the concentration of inhibitor, and Vmax^I is the maximal velocity in the presence of inhibitor.

hTMPK [4] = target: T1, hTMPK; experiment: IC50 determination by enzymatic assay; format: biochemical
Description: as §1, §2
In one embodiment, the IC50 values were determined by enzymatic assay.

Row | inhibition at 2 µM (hTMPK [2]) | IC50 (hTMPK [4]) | SMILES | effect on suppressing colony formation, single agent [1] | further results
1 | 87 ± 5% | – | CC(C)(C)OC(=O)N1CCN(C(=O)Cn2sc3ccc(F)cc3c2=O)CC1 [I-d-6, Tert-butyl 4-(2-(5-fluoro-3-oxobenzo[d]isothiazol-2(3H)-yl)acetyl)piperazine-1-carboxylate] | significant effect on suppressing colony formation | colony formation, combination with doxorubicin [1]: further decreased colony formation
2 | – | – | CCOC(=O)N1CCN(C(=O)Cn2sc3nc(C)cc(C)c3c2=O)CC1 [YMU1] | – | enhancement on doxorubicin sensitization (MDA-MB231 cell): 30 fold
3 | – | – | O=c1[nH]c(=O)n([C@H]2C[C@H](O)[C@@H](CO)O2)cc1F [FdUrd, 5-fluoro-2′deoxyuridine] | – | DNA lesions in nuclei (γH2AX foci) (HCT-116 p53−/− cells; YMU1 2 μM for 2 days, FdUrd 2 μM for 1 day): gave DNA lesions in nuclei
4 | 79 ± 12% | – | Cc1cc(C)c2c(=O)n(CC(=O)N3CCN(C(=O)Cn4sc5ccccc5c4=O)CC3)sc2n1 [I-b-5, 4-[(3-Oxo-benzo[d]isothiazol-2-yl)acetyl]-1-[(4,6-dimethyl-3-15 oxoisothiazolo[5,4-b]pyridin-2-yl)acetyl]piperazine] | – | Ki (hTMPK [3]): 0.17 ± 0.07 µM
5 | 100 ± 7% | 1.29 µM and 1.73 µM | O=C(NCC(=O)N1CCN(C(=O)Cn2sc3ccccc3c2=O)CC1)Nc1ccccc1 [I-e-5, 1-(2-Oxo-2-(4-(2-(3-oxobenzo[d]isothiazol-2(3H)-yl)acetyl)piperazin-1-yl)ethyl)-3-phenylurea] | – | –
6 | 66 ± 7% | – | CC(C)(C)OC(=O)N1CCN(C(=O)Cn2sc3cc(F)ccc3c2=O)CC1 [I-d-7, Tert-butyl 4-(2-(6-fluoro-3-oxobenzo[d]isothiazol-2(3H)-yl)acetyl)piperazine-1-carboxylate] | significant effect on suppressing colony formation | colony formation, combination with doxorubicin [1]: further decreased colony formation
7 | – | – | COc1cccc2c1C(=O)c1c(O)c3c(c(O)c1C2=O)C[C@@](O)(C(=O)CO)C[C@@H]3O[C@H]1C[C@H](N)[C@H](O)[C@H](C)O1 [doxorubicin, reference compound] | no effect | –
8 | 48 ± 5% | 1.1 µM | Cc1cc(N)nc2sn(CC(=O)N3CCN(C(=O)Cn4sc5nc(N)cc(C)c5c4=O)CC3)c(=O)c12 [I-b-6, 1,4-Bis[(6-amino-4-methyl-3-oxoisothiazolo[5,4-b]pyridin-2-yl)acetyl]piperazine] | – | –
9 | 93 ± 9% | 0.5 µM | Cc1cc(O)nc2sn(CC(=O)N3CCN(C(=O)OC(C)(C)C)CC3)c(=O)c12 [I-a-5, Tert-butyl 4-[(6-hydroxy-4-methyl-3-oxoisothiazolo[5,4-b]pyridin-2(3H)-2-yl)acetyl]piperazine-1-carboxylate] | – | –

Row | SMILES | inhibition at 2 µM (hTMPK [2]) | IC50 (hTMPK [4]) | effect on suppressing colony formation, single agent [1] | further results
10 | CCOC(=O)N1CCN(C(=O)Cn2sc3nc(C)cc(C)c3c2=O)CC1 [YMU1, reference compound] | 42 ± 15% | 2.21 ± 0.06 µM | – | DNA lesions in nuclei (γH2AX foci) (HCT-116 p53−/− cells; human, 2 μM): not
